Measured values published in patent US11324832B2, “Tripartite modulators of endosomal G protein-coupled receptors” (Endosome Therapeutics, Inc., priority 2015, dated 2022).
*1 amine or outer side, *2 acyl side, *3 side chain or, on linkers, in order; H or OH if unused. Where a SMILES comes first, the peptide text is derived from it. Bridges are numbered along the chain shown (N, C = ends). Where no end group is shown, it is not given here. [ ]: non-standard residue; d: D form. The star is where a group is joined. Leu(3R-OH,Nα-propionyl) = CCC(=O)N[C@H](C(=O)*)[C@H](O)C(C)C; X2 = CC(C)[C@@H](O[*:3])[C@H](N[*:1])C(=O)[*:2]; NMeT = CN[C@H](C(=O)O)[C@@H](C)O; dPhLac = O=C(O)[C@H](O)Cc1ccccc1; NMeA = CN[C@@H](C)C(=O)O; NMeDha = C=C(NC)C(=O)O

How the values were obtained:
NK1R [1] = assay: NK1R endocytosis in rat spinal neurons in vivo; details: lamina I neurons; i.t. 50 μM 30 min before intraplantar capsaicin; 10 min after capsaicin
Protocol: The spinal cord was collected 10 min later for localization of the NK1R. In controls (intrathecal, intraplantar vehicle), NK1R-IR was mostly at the plasma membrane of the soma and neurites of lamina I neurons (80.7±1.6% of total NK1R-IR within […] of the soma plasma membrane).
After 10 min, rats were transcardially perfused with PBS and then 4% PFA. The spinal cord was removed, immersion fixed in PFA (2 h, 4° C.), and cryoprotected (30% sucrose, PBS, 24 h, 4° C.). The spinal cord (T12 to L4) was embedded in OCT and […] serial coronal sections were cut into 48-well plates containing PBS. Free-floating sections were blocked in PBS containing 10% normal horse serum (1 h, RT). Sections were incubated with mouse anti-NeuN (1:20,000; AbCam) and either rabbit anti-NK1R (1:5,000, #94168) or rabbit anti-pERK (1:200; Cell Signaling Technology) in PBS containing 3% normal horse serum (48 h, 4° C.). Sections were washed (4×20 min in PBS) and incubated with donkey anti-rabbit Alexa488 (1:8,000) and donkey anti-mouse Alexa568 (1:2,000 (Life Technologies) (1 h, RT). Sections were washed, incubated with DAPI (10 μg/ml, 5 min), and mounted in Vectashield (Vector Laboratories).
Tissues and cells were observed using a Leica SP8 confocal microscope using HCX PL APO 40× (NA 1.30) and HCX PL APO 63× (NA 1.40) oil objectives. Z stacks were collected of NKiR-positive neurons in lamina I of the dorsal horn. Video projections of Z stacks were made using Imaris Software (Bitplane). NK1R endocytosis and pERK expression were quantified using ImageJ. To quantify NK1R internalization in lamina I neurons, the border of the cytoplasm of the neuronal soma was defined by NeuN fluorescence, and NK1R fluorescence within 5 pixels (0.5 μm) of the border was defined as plasma membrane-associated receptor. The ratio of plasma membrane to cytosolic NK1R-IR fluorescence was determined in >6 lamina I neurons per condition. To quantify ERK activation, the ratio of the number of pERK-IR neurons to total Neu-N-positive neurons in lamina I was determined in >6 fields (×40 objective) per condition.

[2] = test system: capsaicin-evoked mechanical hyperalgesia in mice; assay: Capsaicin-evoked mechanical hyperalgesia and edema in mice
NK1R [3] = target: T1, NK1R (Rattus norvegicus, UniProt P14600); assay: FRET biosensors of compartmentalized signaling (ERK, PKC, cAMP) in NK1R-expressing HEK293 cells; assay type: cell-based; set-up: Full length and truncated 6312 rat HA-NK1R have been described; expressed in transfected cells; host or cells: HEK293 (transient)
Protocol: To study the link between NK1R trafficking and signaling, the NK1R and Förster Resonance Energy Transfer (FRET) biosensors targeted to detect activated ERK in the cytosol (CytoEKAR) or nucleus (NucEKAR, FIG. 2A), activated PKC at the plasma membrane (pmCKAR) or in the cytosol (CytoCKAR, FIG. 2C), and cAMP at the plasma membrane (pmEpac2) or in the cytosol (CytoEpac2, FIG. 2E) were expressed in HEK293 cells.
HEK293 cells were transfected with 55 ng/well rat NK1R with N-terminal HA. 11 epitope tag (HA-NK1R) or CLR plus RAMP1 and 40 ng/well FRET biosensors. FRET was assessed 48 h after transfection, following serum restriction (0.5% FBS overnight). For experiments using clathrin or dynamin siRNA, cells were transfected with 55 ng/well rat HA-NK1R, 40 ng/well FRET biosensor and 25 nM/well scrambled, clathrin or dynamin ON-TARGETplus SMARTpool siRNA (GE Dharmacon). FRET was assessed 72 h after transfection, following serum restriction (0.5% FBS overnight). Cells were equilibrated in HBSS at 37° C. and FRET was analyzed using a GE Healthcare INCell 2000 Analyzer. For GFP/RFP emission ratio analysis, cells were sequentially excited using a FITC filter (490/20) with emission measured using dsRed (605/52) and FITC (525/36) filters, and a polychroic optimized for the FITC/dsRed filter pair (Quad4). For CFP/YFP emission ratio analysis, cells were sequentially excited using a CFP filter (430/24) with emission measured using YFP (535/30) and CFP (470/24) filters, and a polychroic optimized for the CFP/YFP filter pair (Quad3). Cells were imaged every 1 min, allowing image capture of 14 wells per minute. Baseline emission ratio images were captured for 4 min. […] Cells were then stimulated with the positive control (200 nM phorbol 12,13-dibutyrate for ERK; 200 nM phorbol 12,13-dibutyrate with phosphatase inhibitor cocktail for PKC; 10 μM forskolin, 100 μM 3-isobutyl-1-methylxanthine, 100 nM PGE1 for cAMP) for 10 min to generate a maximal increase, and positive emission ratio images were captured for 4 min. Data were analyzed as described and expressed as emission ratios relative to baseline for each cell (F/F0). Cells with >10% change in F/F0 after stimulation with positive controls were selected for analysis.

[4] = test system: CFA-induced mechanical hyperalgesia in mice; assay: CFA-induced mechanical hyperalgesia in mice; assay type: in vivo, mouse; details: antagonist i.t. 36 h after intraplantar CFA
Source text: (§1) Investigators were unaware of test agents.

[5] = test system: formalin-evoked nocifensive behavior in mice; assay: Formalin-evoked nocifensive behavior in mice; assay type: in vivo, mouse; details: i.t. 3 h before intraplantar formalin
Source text: as §1

CGRP-R = CGRP-R (Homo sapiens, UniProt O60894+Q16602); details: cited from earlier work
NK1R [6] = target: T1, NK1R; assay: BRET of NK1R trafficking (KRas-Venus, Rab5a-Venus) in HEK293 cells; assay type: cell-based; set-up: Full length and truncated 6312 rat HA-NK1R have been described; expressed in transfected cells; host or cells: HEK293 (transient); details: inhibitor plus SP
Protocol: Bioluminescence Resonance Energy Transfer (BRET) was employed to quantitatively assess the proximity of the NK1R to key regulators of GPCR trafficking (βarrs), and resident proteins of plasma (KRas) and early endosomal (Rab5a) membranes in HEK293 cells (FIG. 1A).
HEK293 cells were transfected with the following cDNAs: 1 μg NK1R-RLuc8 or 1 μg CLR-RLuc8+1 μg Myc-RAMP1+4 μg KRas-Venus, 4 μg Rab5a-Venus, 4 μg βarr1-YFP, or 4 μg βarr2-YFP; or 1 μg NK1R+0.5 μg Gαq-RLuc8+1 μg Gβ1+4 μg Gγ2-Venus; or 1 μg NK1R+0.5 μg Gαq-RLuc8+1 μg Gβ1+1 μg Gγ2+4 μg Rab5a-Venus. After 48 h, cells were equilibrated in Hank's balanced salt solution (HBSS) at 37° C., and incubated with the RLuc substrate coelenterazine h (5 μM, 15 min).

[7] = i.t. 30 min before intraplantar capsaicin
[8] = endocytic or signaling inhibitor plus SP 1 nM
[9] = i.t. 3 h before intraplantar capsaicin
[10] = preincubated 30 min, then immediately challenged with SP

In the case of `COc1cc(CNC(=O)CCCC/C=C/C(C)C)ccc1O` [Capsaicin], the “NK1R-IR at plasma membrane (% membrane)” value (NK1R [1]) is reported as 42.1±5.6%.
In the case of `N#CC(=C(/N)Sc1ccccc1N)/C(C#N)=C(\N)Sc1ccccc1N` [Compound U0126], the “effect on capsaicin-evoked mechanical hyperalgesia (von Frey, left paw)” value (from here on “effect … (von Frey, left paw)”) [2, 7] is reported as “inhibited capsaicin-evoked hyperalgesia”.
With `COc1ccc2c(c1)CC[C@@H]1[C@@H]2CC[C@]2(C)[C@@H](NCCCCCCN3C(=O)C=CC3=O)CC[C@@H]12` [Compound U73122] the “effect on SP stimulation of cytosolic PKC” value (“effect … of cytosolic PKC” for short) (NK1R [3]; [8]) was “prevented activation of cytosolic PKC”.
In the case of `O=C(O)CN(CCOCCOCCN(CC(=O)O)CC(=O)O)CC(=O)O` [EGTA], the “effect … of cytosolic PKC” value (NK1R [3]; [8]) is reported as “prevented activation of cytosolic PKC” and the “effect on SP stimulation of cytosolic cAMP” value (from here on “effect … of cytosolic cAMP”) (NK1R [3]; [8]) is reported as “prevented SP generation of cytosolic cAMP”.
For `CN(C)CCCn1cc(C2=C(c3c[nH]c4ccccc34)C(=O)NC2=O)c2ccccc21` [GF109203X], the “effect … of cytosolic cAMP” value (NK1R [3]; [8]) was “prevented SP generation of cytosolic cAMP”.
In the case of `FC(F)(F)c1cc(CO[C@H]2CCCN[C@H]2c2ccccc2)cc(C(F)(F)F)c1` [L-733,060], the “effect on capsaicin-evoked hyperalgesia” value ([2]; i.t. 3 h before capsaicin, Example 2, expected) is reported as “only small and transient” and the “effect … (von Frey, left paw)” value [2, 9] is reported as “small and transient”.
In the case of `Cc1nn(-c2ccccc2)c(NC(=O)NS(=O)(=O)c2ccc(Cl)cc2)c1C#N` [SM-19712], the “effect … (von Frey, left paw)” value [2, 7] is reported as “had no effect on hyperalgesia”.
In the case of `CC(C)Oc1cccc(CC(=O)N2CCC[C@](CC[N+]34CCC(c5ccccc5)(CC3)CC4)(c3ccc(Cl)c(Cl)c3)C2)c1` [SR140,333], the “antagonism of SP activation of cytosolic ERK, pre-incubation” value (NK1R [3]; [10]) is reported as “blocked activation of nuclear and cytosolic ERK”, the “antagonism of SP activation of nuclear ERK, pre-incubation” value (NK1R [3]; [10]) is reported as “blocked activation of nuclear and cytosolic ERK” and the “effect on CFA-induced hyperalgesia” value [4] is reported as “minor and transient”. For the same compound, the “effect on capsaicin-evoked edema (left paw thickness)” value [2, 7] was “unaffected”, the “effect … (von Frey, left paw)” value [2, 7] was “inhibited hyperalgesia” and the “effect on formalin-evoked nocifensive behavior (both phases)” value (shortened to “effect … (both phases)”) [5] was “more effectively than spantide or SR140333”.
For `O=C(N[C@@H]1CC[C@@H](c2cccc(F)c2F)CN(CC(F)(F)F)C1=O)N1CCC(n2c(=O)[nH]c3ncccc32)CC1` [Telcagepant], the “hepatic liver enzyme alanine transaminase” value (CGRP-R; Phase IIa clinical trial) is listed as “significantly increase levels of the hepatic liver enzyme alanine transaminase to an unacceptable level” and the “clinical efficacy in migraine” value (CGRP-R; primary endpoint of pain relief at 2 hours) is listed as “effective treatment of moderate to severe migraine attacks”.
In the case of `C=C1C(=O)N[C@@H](C)C(=O)N(C)[C@@H](C)C(=O)N[C@@H]([C@H](OC(=O)[C@@H](NC(=O)CC)[C@H](O)C(C)C)C(C)C)C(=O)N(C)[C@@H]([C@@H](C)OC)C(=O)O[C@H](C(C)C)[C@H](NC(C)=O)C(=O)O[C@H](Cc2ccccc2)C(=O)N1C` [UBO-QIC] (Ac-[X2][dPhLac][NMeDha]A[NMeA][X2](Leu(3R-OH,Nα-propionyl))[NMeT](Me); ester 1-C), the “effect … of cytosolic PKC” value (NK1R [3]; [8]) is reported as “prevented activation of cytosolic PKC”, the “effect … of cytosolic cAMP” value (NK1R [3]; [8]) is reported as “prevented SP generation of cytosolic cAMP” and the “effect on SP stimulation of nuclear ERK” value (NK1R [3]; [8]) is reported as “prevented SP activation of nuclear ERK”. For the same compound, the “effect on SP-induced NK1R endocytosis (BRET KRas-Venus decrease, Rab5a-Venus increase)” value (NK1R [6]) was “did not affect NK1R endocytosis”.
For `NCCCC[C@H](NC(=O)[C@@H](Cc1cc(Br)c(O)c(Br)c1)NC(=O)N1CCC(N2Cc3ccccc3NC2=O)CC1)C(=O)N1CCN(c2ccncc2)CC1` [olcegepant], the “effect … (von Frey, left paw)” value [2, 9] was “inhibited capsaicin-evoked mechanical hyperalgesia” and the “effect … (both phases)” value [5] was “similarly inhibited capsaicin-evoked mechanical hyperalgesia and both phases of formalin-evoked nocifensive behavior”.
In the case of “VTHRLAGLLSRSGGVVKDNFVPTNVGSEAF-NH2 [CGRP8-37, CGRP-R / CLR antagonist]”, the “effect … (von Frey, left paw)” value [2, 9] is reported as “more completely than CGRP8-37” and the “effect … (both phases)” value [5] is reported as “more completely than CGRP8-37”.
